Source: US4260630A, “Skin diseases” (priority 1977, dated 1981)

Tests used:
Saccharomyces cerevisiae [1] = assay: Repair of photoinduced lesions in yeast (repair mutants, agar holding); type: cell-based
Source text: Biophys. Acta, 395, 393-404.
Consequently, it appears that the excision repair pathway in wild type and rad9-4 cells is essential in AHR for both compounds.

yeast DNA [2] = assay: Photobinding to yeast DNA in vivo (radiolabelled drug plus 365 nm light); type: binding, Saccharomyces cerevisiae
Description: (§1) The radioactivity of an aliquot (0.1 ml) of this solution was measured in 5 ml of scintillation mixture (Nuclear Entreprise, Ltd., Edinburgh, Scotland, NE 250).
(§2) For the in vivo determinations stationary phase cells of the haploid wild type strain N 123 were prepared as previously described.
(§3) 2 ml cell suspensions were exposed to several doses of 365 nm light. In parallel, non irradiated samples were incubated for the same periods. Immediately after incubation and/or irradiation, the samples were centrifuged and the pellet was washed 3 times with 5 ml of saline (0.9% NaCl). The washed cell pellet was resuspended in 1 ml of saline and 1 ml of 2 N NaOH was added in order to hydrolyze the RNA. The suspension was incubated overnight in the dark at room temperature, then cooled down on ice, and 2 ml of 50% TCA were added slowly. The samples were left 20 minutes on ice and the precipitated DNA was filtered on a glass fiber filter disc (Whatman GF/A, 2.1 cm diameter). In some cases the filtrate containing the acid-soluble material was kept aside, and the radioactivity of an aliquot added to 5 ml of NE250 scintillation mixture measured. The precipitate was washed 3 times with 5 ml of 5% cold TCA and 5 ml of 70% ethanol. The filters were then dried and the radioactivity measured in plastic counting vials containing 5 ml of scintillation mixture (NE 250) in a Tricarb Packard scintillation spectrophotometer.

calf thymus DNA = assay: Photobinding to native calf thymus DNA in vitro; type: binding
Description: These determinations were done in vitro and in vivo. […] The thickness of the irradiated sample was 1 mm. After irradiation, the solution was diluted by a factor of 2, and NaCl was added to a final concentration of 1 M. The DNA was precipitated with 2 volumes of cold pure ethanol. The samples were left overnight in the cold at -20° C. The precipitate was then washed by centrifugation three times with 3 ml of 70% ethanol and redissolved in 3 ml of water. The DNA recovery was checked by determination of the optical density of the solution at 260 nm.

yeast RNA = assay: Photobinding to yeast RNA in vivo (radiolabelled drug plus 365 nm light); type: binding, Saccharomyces cerevisiae; settings: for cpm for 10^8 cells: RNA; for Molecules 8-MOP/μg DNA / μg 8-MOP/μg DNA: binding to RNA
Description: as §1, §2, §3

yeast DNA [3] = assay: Melting and reassociation (cross-link formation) of yeast DNA treated in vitro plus 365 nm light; type: biochemical
Description: Measurement of the melting and reassociation characteristics of yeast DNA:
Biophys. […] The fractions containing the nuclear DNA were pooled and dialysed against a 0.1 M, pH 7 phosphate buffer. […] Unirradiated samples of DNA with or without the drugs were taken as references.
The cross-links formation of the two furocoumarins with native yeast DNA was tested by measuring the denaturation and renaturation pattern.

Saccharomyces cerevisiae [4] = assay: Induction of cytoplasmic "petite" mutations in yeast; settings: compared at the same survival level (10%)
Description: (§4) A wild-type strain 211-1aM (29) of Saccharomyces cerivisiae was used, and the following mutants derived from it: S24-12c rad2-20 deficient in excision repair and S25-13b rad9-4 likely to be blocked in a recombinational repair pathway; a double mutant S 2057NL-24 rad2-20 -rad9-4 clone B was obtained by tetrad analysis of a heterozygote [formula]
(§5) The media and culture conditions used were as described in D. Averbeck, E. Moustacchi, (1975) Biochim. Biophys. Acta, 395, 393-404.
(§6) 10^6 cells/ml in saline (0.9% NaCl) were treated for 30 minutes with the drugs at a final concentration of 10 μg/ml and 1.2% ethanol present.
A Philips HPW 125 culot Edison high pressure mercury lamp was used with maximal output at the wavelength 365 nm. The irradiation dose measured by actinometry was 10 J/m^2 per sec., using the following set up: 10 ml of actinometer solution (or the cell suspension, usually 1×10^6 cells/ml), stirred continuously by a magnetic stirrer, were irradiated at room temperature in an open Petri dish of 10 cm diameter at a distance of 10 cm from the center of the light bulb which was mounted horizontally. A 2 mm thick pyrex glass sheet (20×25 cm) was placed in the center of the light beam to cut out UV light of wavelength below 340 nm. […]

Saccharomyces cerevisiae [5] = tested on: Saccharomyces cerevisiae
Description: as §4, §5, §6
A Philips HPW 125 culot Edison high pressure mercury lamp was used with maximal output at the wavelength 365 nm. The irradiation dose measured by actinometry was 10 J/m^2 per sec., using the following set up: 10 ml of actinometer solution (or the cell suspension, usually 1×10^6 cells/ml), stirred continuously by a magnetic stirrer, were irradiated at room temperature in an open Petri dish of 10 cm diameter at a distance of 10 cm from the center of the light bulb which was mounted horizontally. A 2 mm thick pyrex glass sheet (20×25 cm) was placed in the center of the light beam to cut out UV light of wavelength below 340 nm. Overheating was prevented either by a continuous flow of compressed air between the light bulb and the glass or by a pyrex glass water filter of 3 cm total thickness. An accumulative irradiation dose was given to the same sample. After each dose 0.1 ml of irradiated cell suspension was taken, diluted and aliquots plated.

[6] = 8-MOP, 15 min, 18.9 × 10^4 ergs.mm^-2 365 nm
[7] = 8-MOP, 30 min, 37.8 × 10^4 ergs.mm^-2 365 nm
[8] = 8-MOP, 60 min, 75.6 × 10^4 ergs.mm^-2 365 nm
[9] = 8-MOP, 90 min, 113.4 × 10^4 ergs.mm^-2 365 nm
[10] = 8-MOP, 120 min, 151.2 × 10^4 ergs.mm^-2 365 nm
[11] = 15 min, 18.9 × 10^4 ergs.mm^-2 365 nm
[12] = 30 min, 37.8 × 10^4 ergs.mm^-2 365 nm
[13] = 60 min, 75.6 × 10^4 ergs.mm^-2 365 nm
[14] = 90 min, 113.4 × 10^4 ergs.mm^-2 365 nm
[15] = 120 min, 151.2 × 10^4 ergs.mm^-2 365 nm
[16] = equimolar concentration to 3-CPs
[17] = 7.5 × 10^-5, 30 min, 37.8 erg. cm^-2 365 nm (so in the source)
[18] = 7.5 × 10^-5, 60 min, 75.6 erg. cm^-2 365 nm (so in the source)
[19] = 7.5 × 10^-5, 90 min, 113.4 erg. cm^-2 365 nm (so in the source)
[20] = 7.5 × 10^-5, 120 min, 151.2 erg. cm^-2 365 nm (so in the source)
[21] = 7.5 × 10^-5, 180 min, 226.8 erg. cm^-2 365 nm (so in the source)

## COc1c2occc2cc2ccc(=O)oc12 [Example 8-MOP, 8-methoxypsoralen, reference compound]
Saccharomyces cerevisiae [1]; agar holding
  dark repair by strain defective in excision: unable to perform a dark repair
Saccharomyces cerevisiae [1]; plus 365 nm light
  interaction between rad2 and rad9 repair pathways: additive interaction
Saccharomyces cerevisiae [1]; wild-type cells
  kinetics of agar holding recovery (AHR): same kinetics of AHR
Yeast DNA [2]; [6]
  cpm for 10^8 cells: 1161 cpm for 10^8 cells
Yeast DNA [2]; [7]
  cpm for 10^8 cells: 1474 cpm for 10^8 cells
Yeast DNA [2]; [8]
  cpm for 10^8 cells: 2805 cpm for 10^8 cells
Yeast DNA [2]; [9]
  cpm for 10^8 cells: 5582 cpm for 10^8 cells
Yeast DNA [2]; [10]
  cpm for 10^8 cells: 5572 cpm for 10^8 cells
Yeast DNA [2]; 15-120 min, no 365 nm light
  Molecules 8-MOP/μg DNA: 0.034 Molecules 8-MOP/μg DNA × 10^14
  cpm for 10^8 cells: 404.75 cpm for 10^8 cells
  μg 8-MOP/μg DNA: 0.126 μg 8-MOP/μg DNA × 10^-2
Yeast DNA [2]; 18.9×10^3 J/m^2, 5×10^-5 M
  molecules linked to DNA per cell: 0.5×10^6 molecules per cell
Yeast DNA [2]; 365 nm light
  binding to DNA in vivo compared with in vitro: much higher in the in vivo condition than in vitro
Yeast DNA [2]; [11]
  Molecules 8-MOP/μg DNA: 0.10 Molecules 8-MOP/μg DNA × 10^14
  μg 8-MOP/μg DNA: 0.36 μg 8-MOP/μg DNA × 10^-2
Yeast DNA [2]; [12]
  Molecules 8-MOP/μg DNA: 0.13 Molecules 8-MOP/μg DNA × 10^14
  μg 8-MOP/μg DNA: 0.46 μg 8-MOP/μg DNA × 10^-2
Yeast DNA [2]; [13]
  Molecules 8-MOP/μg DNA: 0.24 Molecules 8-MOP/μg DNA × 10^14
  μg 8-MOP/μg DNA: 0.86 μg 8-MOP/μg DNA × 10^-2
Yeast DNA [2]; [14]
  Molecules 8-MOP/μg DNA: 0.48 Molecules 8-MOP/μg DNA × 10^14
  μg 8-MOP/μg DNA: 1.72 μg 8-MOP/μg DNA × 10^-2
Yeast DNA [2]; [15]
  Molecules 8-MOP/μg DNA: 0.48 Molecules 8-MOP/μg DNA × 10^14
  μg 8-MOP/μg DNA: 1.72 μg 8-MOP/μg DNA × 10^-2
Yeast DNA [2]; [16]
  light dose dependence of binding with DNA: increases linearly in the range of light doses used
Calf thymus DNA; 7.5 × 10^-5, 0-180 min incub. (dark)
  μg 8-MOP/μDNA: 0.031×10^-4 μg 8-MOP/μDNA
Calf thymus DNA; [17]
  Binding yield 8-MOP molecules/nucleotide: 1/900
  μg 8-MOP/μDNA: 7.3×10^-4 μg 8-MOP/μDNA
Calf thymus DNA; [18]
  Binding yield 8-MOP molecules/nucleotide: 1/532
  μg 8-MOP/μDNA: 12.4×10^-4 μg 8-MOP/μDNA
Calf thymus DNA; [19]
  Binding yield 8-MOP molecules/nucleotide: 1/428
  μg 8-MOP/μDNA: 15.4×10^-4 μg 8-MOP/μDNA
Calf thymus DNA; [20]
  Binding yield 8-MOP molecules/nucleotide: 1/386
  μg 8-MOP/μDNA: 17.1×10^-4 μg 8-MOP/μDNA
Calf thymus DNA; [21]
  Binding yield 8-MOP molecules/nucleotide: 1.256 molecules/nucleotide
  μg 8-MOP/μDNA: 25.8×10^-4 μg 8-MOP/μDNA
Calf thymus DNA; 8-MOP 7.5 × 10^-5, 0-180 min incub. (dark)
  cpm/μg DNA: 0.24 cpm/μg DNA
Calf thymus DNA; 8-MOP 7.5 × 10^-5, 30 min, 37.8 erg. cm^-2 365 nm (so in the source)
  cpm/μg DNA: 56.3 cpm/μg DNA
Calf thymus DNA; 8-MOP 7.5 × 10^-5, 60 min, 75.6 erg. cm^-2 365 nm (so in the source)
  cpm/μg DNA: 95.7 cpm/μg DNA
Calf thymus DNA; 8-MOP 7.5 × 10^-5, 90 min, 113.4 erg. cm^-2 365 nm (so in the source)
  cpm/μg DNA: 118.8 cpm/μg DNA
Calf thymus DNA; 8-MOP 7.5 × 10^-5, 120 min, 151.2 erg. cm^-2 365 nm (so in the source)
  cpm/μg DNA: 131.5 cpm/μg DNA
Calf thymus DNA; 8-MOP 7.5 × 10^-5, 180 min, 226.8 erg. cm^-2 365 nm (so in the source)
  cpm/μg DNA: 198.5 cpm/μg DNA
Yeast RNA
  photoaffinity for RNA: relatively low photoaffinity for RNA
Yeast RNA; [6]
  cpm for 10^8 cells: 7400 cpm for 10^8 cells
Yeast RNA; [7]
  cpm for 10^8 cells: 12920 cpm for 10^8 cells
Yeast RNA; [8]
  cpm for 10^8 cells: 23580 cpm for 10^8 cells
Yeast RNA; [9]
  cpm for 10^8 cells: 34150 cpm for 10^8 cells
Yeast RNA; [10]
  cpm for 10^8 cells: 44060 cpm for 10^8 cells
Yeast RNA; 15-120 min, no 365 nm light
  cpm for 10^8 cells: 3805 cpm for 10^8 cells
  Molecules 8-MOP/μg DNA: 0.033 Molecules 8-MOP/μg DNA × 10^14
  μg 8-MOP/μg DNA: 0.12 μg 8-MOP/μg DNA × 10^-2
Yeast RNA; [11]
  Molecules 8-MOP/μg DNA: 0.064 Molecules 8-MOP/μg DNA × 10^14
  μg 8-MOP/μg DNA: 0.228 μg 8-MOP/μg DNA × 10^-2
Yeast RNA; [12]
  Molecules 8-MOP/μg DNA: 0.11 Molecules 8-MOP/μg DNA × 10^14
  μg 8-MOP/μg DNA: 0.40 μg 8-MOP/μg DNA × 10^-2
Yeast RNA; [13]
  Molecules 8-MOP/μg DNA: 0.20 Molecules 8-MOP/μg DNA × 10^14
  μg 8-MOP/μg DNA: 0.73 μg 8-MOP/μg DNA × 10^-2
Yeast RNA; [14]
  Molecules 8-MOP/μg DNA: 0.29 Molecules 8-MOP/μg DNA × 10^14
  μg 8-MOP/μg DNA: 1.05 μg 8-MOP/μg DNA × 10^-2
Yeast RNA; [15]
  Molecules 8-MOP/μg DNA: 0.38 Molecules 8-MOP/μg DNA × 10^14
  μg 8-MOP/μg DNA: 1.36 μg 8-MOP/μg DNA × 10^-2
Yeast RNA; [16]
  light dose dependence of binding with RNA: increases linearly in the range of light doses used
Yeast DNA [3]
  reassociation of DNA after heat denaturation: a fraction of the DNA is capable to renature
Saccharomyces cerevisiae [4]
  induction of cytoplasmic "petite" mutations: less reactive
Saccharomyces cerevisiae [5]
  photosensitization of cells compared with 3-CPs or angelicin: more photosensitized
Saccharomyces cerevisiae [5]; saline, 5 min
  survivors: 10^-5
